Experimental data published in US20080275086A1, “Dpp-Iv Inhibitors” (priority 2005, published 2008).
Structures can show the parent of a compound that is named as a salt. Where two headings read alike, the source gives them in different places.

Target: T1, DPP-IV (Homo sapiens, UniProt P27487)
T1 construct: Soluble human DPP-IV lacking the transmembrane anchor (Gly31-Pro766); Pre-Pro-alpha-mating factor leader (secretion fusion) (N, cleaved yes); made in house
Assay: Continuous fluorimetric assay of inhibition of DPP-IV peptidase activity (Gly-Pro-AMC cleavage)
Format: biochemical
Procedure: Inhibition of DPP-IV peptidase activity was monitored with a continuous fluorimetric assay. This assay is based on the cleavage of the substrate Gly-Pro-AMC (Bachem) by DPP-IV, releasing free AMC. The assay is carried out in 96-well microtiterplates. In a total volume of 100 μL, compounds are preincubated with 50 pM DPP-IV employing a buffer containing 10 mM Hepes, 150 mM NaCl, 0.005% Tween 20 (pH 7.4). The reaction is started by the addition of 16 μM substrate and the fluorescence of liberated AMC is detected for 10 minutes at 25° C. with a fluorescence reader (BMG-Fluostar; BMG-Technologies) using an excitation wavelength of 370 nm and an emission wavelength of 450 nm. The final concentration of DMSO is 1%. The inhibitory potential of the compounds were determined.
Soluble human DPP-IV lacking the transmembrane anchor (Gly31-Pro766) was expressed in a recombinant YEAST-strain as Pre-Pro-alpha-mating fusion. The secreted product (rhuDPP-IV-Gly31-Pro766) was purified from fermentation broth (>90% purity) and used for inhouse screening.

[1] = 50 pM DPP-IV, 16 μM Gly-Pro-AMC, pH 7.4, 25° C., values grouped in 2 classes, read-out: IC50 for inhibition of DPP-IV peptidase activity

T1 sequence (P27487 31-766): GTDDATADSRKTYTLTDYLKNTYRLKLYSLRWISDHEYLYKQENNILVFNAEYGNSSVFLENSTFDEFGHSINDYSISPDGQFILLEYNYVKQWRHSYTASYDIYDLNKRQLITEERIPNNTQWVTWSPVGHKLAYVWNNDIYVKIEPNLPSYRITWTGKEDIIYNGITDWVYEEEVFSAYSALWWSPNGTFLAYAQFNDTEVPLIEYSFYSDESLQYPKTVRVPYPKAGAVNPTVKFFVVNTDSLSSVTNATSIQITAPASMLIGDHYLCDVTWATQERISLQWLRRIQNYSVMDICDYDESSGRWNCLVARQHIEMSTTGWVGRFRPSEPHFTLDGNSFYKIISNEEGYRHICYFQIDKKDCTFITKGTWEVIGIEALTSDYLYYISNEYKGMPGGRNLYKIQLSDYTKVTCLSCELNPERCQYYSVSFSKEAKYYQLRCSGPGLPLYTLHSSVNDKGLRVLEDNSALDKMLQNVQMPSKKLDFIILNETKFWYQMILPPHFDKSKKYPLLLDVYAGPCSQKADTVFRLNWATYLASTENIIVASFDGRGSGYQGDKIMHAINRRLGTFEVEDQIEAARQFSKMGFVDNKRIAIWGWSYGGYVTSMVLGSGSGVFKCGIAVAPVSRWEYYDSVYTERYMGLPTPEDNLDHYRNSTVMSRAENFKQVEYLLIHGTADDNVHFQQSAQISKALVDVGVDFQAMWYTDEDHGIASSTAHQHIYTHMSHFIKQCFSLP

Row | Structure (SMILES) | IC50 [1] [nM] | IC50 [nM]
1 | N[C@@H](CC(=O)N1CCCC1Cc1ccccc1)Cc1ccccc1F (mixture of isomers) [Example 12] | < 500 | 
2 | N[C@@H](CC(=O)N1CCC[C@H]1Cc1ccccc1)Cc1ccccc1F (single isomer, unassigned) [Example 47] | < 500 | 
3 | N[C@@H](CC(=O)N1CCC[C@@H]1Cc1ccccc1)Cc1ccccc1F (single isomer, unassigned) [Example 48] | < 500 | 
4 | N[C@@H](CC(=O)N1CCC(Cc2ccccc2)CC1)Cc1ccccc1F [Example 1] | 501 to 2000 | 
5 | N[C@@H](CC(=O)N1CCC(CO)CC1)Cc1ccccc1F [Example 2] | 501 to 2000 | 
6 | N[C@@H](CC(=O)N1CCC(N(C2CC2)S(=O)(=O)c2ccccc2)CC1)Cc1ccccc1F [Example 3] | < 500 | 
7 | N[C@@H](CC(=O)N1CCC(c2ccccc2)CC1)Cc1ccccc1F [Example 4] | < 500 | 
8 | N#CC1(c2ccccc2)CCN(C(=O)C[C@H](N)Cc2ccccc2F)CC1 [Example 5] |  | < 500
9 | N[C@@H](CC(=O)N1CCC(n2c(=O)[nH]c3ccccc32)CC1)Cc1ccccc1F [Example 6] | < 500 | 
10 | COc1ccc(C2CCN(C(=O)C[C@H](N)Cc3ccccc3F)CC2)cc1 [Example 7] | < 500 | 
11 | N[C@@H](CC(=O)N1CCC(N2CCCCC2=O)CC1)Cc1ccccc1F [Example 8] | 501 to 2000 | 
12 | COc1ccccc1C1CCN(C(=O)C[C@H](N)Cc2ccccc2F)CC1 [Example 9] | < 500 | 
13 | N[C@@H](CC(=O)N1CCC(O)CC1)Cc1ccccc1F [Example 10] | 501 to 2000 | 
14 | CCN(CC)C(=O)C1CCCN(C(=O)C[C@H](N)Cc2ccccc2F)C1 (some centres unmarked) [Example 11] | 501 to 2000 | 
15 | N[C@@H](CC(=O)N1CCCC1Cc1cccnc1)Cc1ccccc1F (some centres unmarked) [Example 13] | < 500 | 
16 | N[C@@H](CC(=O)N1CCC(n2c(=O)[nH]c3cc(Cl)ccc32)CC1)Cc1ccccc1F [Example 14] | < 500 | 
17 | N[C@@H](CC(=O)N1CCC(c2nc(-c3ccncc3)no2)CC1)Cc1ccccc1F [Example 15] | < 500 | 
18 | N[C@@H](CC(=O)N1CCCC1Cc1cccc(Cl)c1)Cc1ccccc1F (some centres unmarked) [Example 16] | < 500 | 
19 | N[C@@H](CC(=O)N1CCCC1Cc1ccc(Cl)cc1)Cc1ccccc1F (some centres unmarked) [Example 17] | < 500 | 

Row | Structure (SMILES) | IC50 [1] [nM] | IC50 [nM]
20 | N[C@@H](CC(=O)N1CCCC1Cc1ccccn1)Cc1ccccc1F (some centres unmarked) [Example 18] | < 500 | 
21 | N[C@@H](CC(=O)N1CCC(n2nnc3ccccc32)CC1)Cc1ccccc1F [Example 19] | < 500 | 
22 | N[C@@H](CC(=O)N1CCC(Oc2ccccc2)CC1)Cc1ccccc1F [Example 20] | < 500 | 
23 | N[C@@H](CC(=O)N1CCC(c2nnc(-c3ccccc3)o2)CC1)Cc1ccccc1F [Example 21] | < 500 | 
24 | CS(=O)(=O)c1ccc(-c2noc(C3CCN(C(=O)C[C@H](N)Cc4ccccc4F)CC3)n2)cc1 [Example 22] | < 500 | 
25 | N[C@@H](CC(=O)N1CCC(c2nc(-c3cccnc3)no2)CC1)Cc1ccccc1F [Example 23] | < 500 | 
26 | N[C@@H](CC(=O)N1CCC(C(=O)NCCO)CC1)Cc1ccccc1F [Example 24] | 501 to 2000 | 
27 | N[C@@H](CC(=O)N1CCC(N2CCOCC2)CC1)Cc1ccccc1F [Example 25] | 501 to 2000 | 
28 | N[C@@H](CC(=O)N1CCC(c2nc(-c3cnccn3)no2)CC1)Cc1ccccc1F [Example 26] | < 500 | 
29 | N[C@@H](CC(=O)N1CCC(C(F)(F)F)CC1)Cc1ccccc1F [Example 27] | < 500 | 
30 | N[C@@H](CC(=O)N1CCC(c2nnc(-c3ccc(F)cc3)o2)CC1)Cc1ccccc1F [Example 28] | < 500 | 
31 | COc1cc(OC)nc(C2CCN(C(=O)C[C@H](N)Cc3ccccc3F)CC2)n1 [Example 29] | < 500 | 
32 | N[C@@H](CC(=O)N1CCCC(F)(F)C1)Cc1ccccc1F [Example 30] | 501 to 2000 | 
33 | N[C@@H](CC(=O)N1CCC(Nc2cccc(S(=O)(=O)C(F)(F)F)c2)CC1)Cc1ccccc1F [Example 31] | < 500 | 
34 | N[C@@H](CC(=O)N1CCC(c2nc3ccccc3[nH]2)CC1)Cc1ccccc1F [Example 32] | < 500 | 
35 | N[C@@H](CC(=O)N1CCCC(Cc2ccccc2Cl)C1)Cc1ccccc1F (some centres unmarked) [Example 33] | 501 to 2000 | 
36 | N[C@@H](CC(=O)N1CCCC(Oc2ccccc2)C1)Cc1ccccc1F (some centres unmarked) [Example 34] | < 500 | 
37 | N[C@@H](CC(=O)N1CCC(c2ccc(Cl)cc2)CC1)Cc1ccccc1F [Example 35] | 501 to 2000 | 
38 | N[C@@H](CC(=O)N1CCC(N(C2CC2)S(=O)(=O)c2ccc(Cl)cc2)CC1)Cc1ccccc1F [Example 36] | < 500 | 

Row | Structure (SMILES) | IC50 [1] [nM] | IC50 [nM]
39 | N[C@@H](CC(=O)N1CCC(c2cccc(F)c2)CC1)Cc1ccccc1F [Example 37] | 501 to 2000 | 
40 | N[C@@H](CC(=O)N1CCC(c2ccccc2C(F)(F)F)CC1)Cc1ccccc1F [Example 38] | < 500 | 
41 | Cc1ccc(S(=O)(=O)C2CCN(C(=O)C[C@H](N)Cc3ccccc3F)CC2)cc1 [Example 39] | < 500 | 
42 | N[C@@H](CC(=O)N1CCC(c2nc(-c3cccc(C(F)(F)F)c3)no2)CC1)Cc1ccccc1F [Example 40] | 501 to 2000 | 
43 | N[C@@H](CC(=O)N1CCC(c2nnc(-c3cccc(C(F)(F)F)c3)o2)CC1)Cc1ccccc1F [Example 41] | 501 to 2000 | 
44 | N[C@@H](CC(=O)N1CCC(c2cccc(Cl)c2)CC1)Cc1ccccc1F [Example 42] | 501 to 2000 | 
45 | N[C@@H](CC(=O)N1CCCC(F)C1)Cc1ccccc1F (some centres unmarked) [Example 43] | 501 to 2000 | 
46 | N[C@@H](CC(=O)N1CCC(F)CC1)Cc1ccccc1F [Example 44] | 501 to 2000 | 
47 | N[C@@H](CC(=O)N1CCC(N2C(=O)Cc3ccccc32)CC1)Cc1ccccc1F [Example 45] |  | < 500
48 | N[C@@H](CC(=O)N1CCCC(C(F)(F)F)C1)Cc1ccccc1F (some centres unmarked) [Example 46] | 501 to 2000 | 
49 | N[C@@H](CC(=O)N1CC(C(=O)NCc2ccccc2)C1)Cc1ccccc1F [Example 49, 1-[3-(R)-amino-4-(2-fluoro-phenyl)-butyryl]-azetidine-3-carboxylic acid benzylamide] | 501 to 2000 | 
50 | N[C@@H](CC(=O)N1CC(C(=O)Nc2ccccn2)C1)Cc1ccccc1F [Example 50] | 501 to 2000 | 
51 | N[C@@H](CC(=O)N1CC(N2CCN(c3ccccn3)CC2)C1)Cc1ccccc1F [Example 51, (3R)-3-amino-4-(2-fluoro-phenyl)-1-[3-(4-pyridin-2-yl-piperazin-1-yl)-azetidin-1-yl]-butan-1-one trifluoroacetic acid] | 501 to 2000 | 
52 | N[C@@H](CC(=O)N1CC[C@H](NC(=O)C2CC2)C1)Cc1ccccc1F [Example 52, N-((S)-1-((R)-3-amino-4-(2-fluorophenyl)butanoyl)pyrrolidin-3-yl)cyclopropane-carboxamide trifluoroacetic acid salt] | < 500 | 
53 | N[C@@H](CC(=O)N1CC[C@H](NC(=O)c2ccccc2)C1)Cc1ccccc1F [Example 53, N-((S)-1-((R)-3-amino-4-(2-fluorophenyl)butanoyl)pyrrolidin-3-yl)benzamide trifluoroacetic acid salt] | < 500 | 
54 | N[C@@H](CC(=O)N1CC[C@@H](NC(=O)C2CC2)C1)Cc1ccccc1F [Example 54, N-((R)-1-((R)-3-amino-4-(2-fluorophenyl)butanoyl)pyrrolidin-3-yl)cyclopropane-carboxamide trifluoroacetic acid salt] | < 500 | 
55 | N[C@@H](CC(=O)N1CC[C@@H](NC(=O)c2ccccc2)C1)Cc1ccccc1F [Example 55, N-((R)-1-((R)-3-amino-4-(2-fluorophenyl)butanoyl)pyrrolidin-3-yl)benzamide trifluoroacetic acid salt] | < 500 | 
56 | N[C@H](Cc1ccccc1F)CS(=O)(=O)N1CCC[C@H]1CNS(=O)(=O)c1ccccc1 [Example 56, N-{(S)-1-[(R)-2-Amino-3-(2-fluoro-phenyl)-propane-1-sulphonyl]-pyrrolidin-2-ylmethyl}-benzenesulfonamide] | < 500 | 
